Data taken from paper PMC8179271, “Identification of β-strand mediated protein–protein interaction inhibitors using ligand-directed fragment ligation” (Chemical Science, 2021).
Where two headings read alike, the source gives them in different places. Residues, ends and D or L forms follow the SMILES beside them. *: point of attachment. FITC = O=C1OC2(c3ccc(O)cc3Oc3cc(O)ccc32)c2ccc(NC(=S)*)cc21; Ahx = NCCCCCC(=O)O

Assays:
Format in all cases: binding
SHANK1 PDZ [1] = molecular target: T1, SHANK1 PDZ (Homo sapiens, UniProt Q9Y566); assay: Fluorescence anisotropy competition assay (FITC-Ahx-TRL-COOH tracer); conditions: 50 mM NH4Ac pH 6.5, 10 mM aniline
T1 construct: Human Shank1 PDZ domain (656-762) was cloned into the pGEX-6P-2 expression vector; GST (N, cleaved yes); made in house; host or cells: E. coli BL21 Gold
T1 sequence (Q9Y566 656-762): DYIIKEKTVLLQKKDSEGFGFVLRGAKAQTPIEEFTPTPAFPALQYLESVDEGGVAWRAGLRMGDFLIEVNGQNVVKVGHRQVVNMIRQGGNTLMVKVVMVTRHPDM
Experimental: (d) FA competition curves for hybrids from the extended screen. All screening and validation assays were performed in 50 mM NH4Ac buffer, pH 6.5, 10 mM aniline using 1 μM final protein concentration and 10 nM FITC-Ahx-TRL-COOH as tracer at room temperature. […] Anisotropy is expressed relative to the control experiment where no competitor is present. Hit thresholds were defined based on the relative anisotropy of the (i) buffer control (rbuffer − 3σ) and (ii) the TRL control (rTRL − 3σ). Compounds below these thresholds are coloured blue and red respectively.
(0.22 µm membrane) and applied to glutathione beads and washed with 10 CV 20 mM Tris, pH 8, 500 mM NaCl. GST was cleaved on-column overnight at 4 °C using Prescission protease.
The eluted fractions were concentrated and purified by size-exclusion chromatography on S75 26/60 pg column in 20 mM Tris, 150 mM NaCl, 5% glycerol pH 7.5 buffer. Collected fractions were analysed by SDS-PAGE and concentrated. Pure protein was analysed by high resolution […]
determined by UV-VIS spectroscopy using the 8480 M-1 cm-1 extinction coefficient. […]
2.3. Aldehyde library selection
A diverse subset of fragments was selected from commercially available small molecule aldehydes (AldrichCPR, Fluorochem and Acros). Available compounds having one aldehyde functionality were filtered first based on physicochemical properties: 80 Da < MW < 400 Da, HBA, HBD ≤ 3, and clogP ≤ 5. To select a diverse set of compounds , first, binary molecular fingerprint s were generated for each molecule using the FragFp descriptor implemented in DataWarrior (openmolecules.org) , which relies on a predefined substructure fragment library and is used to compare 2D structural similarities. Then, using the same software , structurall y dissimilar subset of compounds was selected based on the molecular fingerprints. Compounds were further excluded based on undesired functional groups and commerical availability , […]
carboxylic acid functional groups.
2.4. Fluorescence anisotropy
Fluorescence anisotropy assays were performed in 384-well plates (Greiner Bio-one) and the fluorescence anisotropy measured using a Perkin Elmer EnVisionTM 2103 MultiLabel plate reader, with excitation at 480 nm (30 nm bandwidth), polarised dichroic mirror at 505 nm and […]
°C. Fluorescence anisotropy data was processed as described previously.4 The data from both […]
the P (perpendicular intensity) and S (parallel intensity) channels, resulting from this measurement and corrected by subtracting the corresponding control wells, were used to calculate the intensity and anisotropy for each well following Equations 1 and 2: […]
r = anisotropy, I = total intensity, P = perpendicular intensity, S = parallel intensity, G is an […]
Assays were performed in 50 mM NH4Ac, 10 mM aniline, pH 6.5 buffer. Shank 1 PDZ was dialysed into the assay buffer prior to the experiment. […]

SHANK1 PDZ [2] = molecular target: T1, SHANK1 PDZ; assay: Isothermal titration calorimetry (ITC); conditions: for Kd / n (ITC stoichiometry) / ΔH / ΔS: 25 mM Tris pH 7.5, 150 mM NaCl, 25 °C
Experimental: Fitted thermograms and thermodynamic signatures for the tested peptides and hydrazones. […] For individual raw ITC data and fitted thermograms see Fig. S14. ^† […]
Figure S14. Raw ITC data (top) and fitted thermograms (bottom) for the tested hydrazone hits and […]
0.75-1 mM peptide or hydrazone solution to 75-150 µM protein.
(1 picture or pasted object on this page, not shown here)
2.5. Isothermal tritration calorimetry
ITC experiments were carried out using Microcal ITC200i instrument (Malvern) at 25°C […]
Shank1 PDZ was dialysed against the buffer prior to experiment, lyophilized peptides and hydrazones were dissolved in the same buffer. 75 or […]
depending on compound solubility, from the syringe using 2 µL injections with 120 s spacing between the injections for 20 injection. Heats of peptide dilution w ere measured by titrating the peptide into buffer and subtracted from each measurement. Dat a was analysed using Microcal Origin 8 and fitt ed to a one-binding site model. […]

[3] = molecular target: T2, PDZ domain of PSD-95 (PSD-95 PDZ1) (Homo sapiens, UniProt P78352); assay: 1H-15N HSQC chemical shift perturbation titration; conditions: Fig. S24
T2 construct: made in house
T2 sequence (P78352 with tags, fused parts or gaps): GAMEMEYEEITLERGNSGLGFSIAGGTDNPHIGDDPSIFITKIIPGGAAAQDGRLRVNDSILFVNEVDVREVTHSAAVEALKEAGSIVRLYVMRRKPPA
Excerpt: Since Class I PDZ domains bind to consensus sequences,[71,72] we set out to further assess the selectivity of the peptide-fragment hybrids against another Class I PDZ domain. We compared the ability to bind to SHANK1 PDZ against the ability to bind to the PDZ domain of PSD-95, a therapeutically important target in neuronal diseases and cancer.[58] We monitored the binding using chemical shift perturbations in the ^1H–^15N HSQC spectra of the PDZ domain of PSD-95 (Fig. S22, S23, Tables S7 and S8 ^†). […] However, PSD-95 also lacks the patch of cationic residues proximal to the C-terminal carboxylate binding site. Such a result provides confidence that the dynamic ligation screening approach used here can encode and retain selectivity.
PSD 95 PDZ1 amino acid sequence
Figure S22. Overlay of plots for 4-A047 with Ligand:protein ratio ranging from 1:1 to 100:1. The gradual change in chemical shifts of limited residues indicate that the binding of the ligand is specific and to the putative ligand binding site.
Figure S23. Mapping of chemical shift changes onto the structure of PSD95 PDZ1 using PDB Accession Code 2KA9 (cypin peptide in magenta). Residues whose chemical shifts are affected are coloured yellow; these residues line the binding site. […]
Table S7. Concentration dependent shift changes of compound 4-A047 for a few residues whose chemical shifts have been assigned […]

SHANK1 PDZ [4] = molecular target: T1, SHANK1 PDZ; assay: Fluorescence anisotropy direct titration with FITC-labelled GKAP tracer
Experimental: A diversity-based selection was performed on commercially available aldehyde fragments obeying guidelines for fragment-based drug design,[75] resulting in a small library of 129 compounds (A001–A129, Table S1 and Fig. S1 ^†). […] To allow us to perform the hybrid formation and screening in the presence of the target protein in a single step, it was necessary to first establish that SHANK1 PDZ was still able to bind to its natural ligand under the same conditions.
Figure S2. Rate of hydrazone exchange in 50 mM ammonium-acetate (NH4Ac), pH 6.5, 10 mM aniline buffer using 100 µM compound 4-A001 and 5 equivalents of three different aldehydes (corresponding to R2 groups) at room temperature. Hydrazone exchange was monitored by LC -MS; peaks for extracted ion chromatograms were integrated and normalized . […]
Figure S3. Fluorescence anisotropy direct titration of S HANK1 PDZ in 50 mM NH4Ac, pH 6.5 10 mM aniline containing buffer using 50 nM FITC-Ahx-GKAP as tracer. Plate was read after 24 hr incubation […]
Assays were performed in 50 mM NH4Ac, 10 mM aniline, pH 6.5 buffer. […] Fluorescence anisotropy direct titration assays were performed with protein concentration diluted over 24 points using ½ dilutions. […]
final protein concentration. […] For control wells, the tracer peptide was replaced with an identical volume of assay buffer and plates were read immediately, and after an hour or after 24 hours . […]

[5] = x-A001 incubated with 5 equiv aldehyde in presence of protein for 24 h, then 10 nM FITC-Ahx-TRL-COOH, SHANK1 PDZ 1 M, read-out: IC50 (Fig. S7-S9, S11, S12, hybrids selected for validation from single point screens)
[6] = 1 µM Shank1 PDZ, 10 nM FITC-Ahx-TRL-COOH, plates read immediately, room temperature, read-out: IC50 (Fig. S4, parent peptides and benzaldehyde hydrazones)
[7] = Table S2, relative to core Ac-TRL-OH motif

Compound | IC50 (SHANK1 PDZ [1]; [5]) [µM] | Kd (SHANK1 PDZ [2]) [µM] | further results
CC(C)C[C@H](NC(=O)[C@H](CCCNC(=N)N)NC(=O)[C@@H](NC(=O)CCCC(=O)N/N=C/c1ccccc1C(=O)O)[C@@H](C)O)C(=O)O [4-A047] | 7.3 ± 0.6 | 4.6 ± 0.2 | EC50 [3]: 2400 ± 300 µM
CC(C)C[C@H](NC(=O)[C@H](CCCNC(=N)N)NC(=O)[C@@H](NC(=O)CCC(=O)N/N=C/c1ccc(C(=O)O)cc1)[C@@H](C)O)C(=O)O [3-A048] | 11 ± 1 | 10 ± 1 | –
CC(C)C[C@H](NC(=O)[C@H](CCCNC(=N)N)NC(=O)[C@@H](NC(=O)CCC(=O)NN=Cc1ccccc1)[C@@H](C)O)C(=O)O [3-A001] | – | 16 ± 3 | IC50 (SHANK1 PDZ [1]; [6]): 51 ± 3 µM; n (ITC stoichiometry) (SHANK1 PDZ [2]): 1.04 ± 0.04; ΔH (SHANK1 PDZ [2]): -2.32 ± 0.14 kcal/mol; ΔS (SHANK1 PDZ [2]): 59.0 J mol^−1 K^−1; GE group efficiency (-ΔΔG/ΔNnH) (SHANK1 PDZ [2]; [7]): 0.07; ΔΔG (ΔGCompound-ΔGAc-TRL-OH) (SHANK1 PDZ [2]; [7]): -0.201 kcal/mol
CC(C)C[C@H](NC(=O)[C@H](CCCNC(=N)N)NC(=O)[C@@H](NC(=O)[C@H](CCC(N)=O)NC(=O)[C@H](C)NC(=O)[C@H](CCC(=O)O)NC(=O)CCCCCNC(=S)Nc1ccc2c(c1)C(=O)OC21c2ccc(O)cc2Oc2cc(O)ccc21)[C@@H](C)O)C(=O)O [FITC-Ahx-GKAP] ({FITC-Ahx}-EAQTRL-OH; C-terminus assumed) | – | – | Kd (SHANK1 PDZ [4]; 50 mM NH4Ac pH 6.5, 10 mM aniline, 50 nM tracer, read after 24 hr incubation at room temperature, read-out: KD (Fig. S3)): 0.96 ± 0.08 µM; Kd (SHANK1 PDZ [4]; KD (initial) of FITC labelled GKAP, pH 6.5, 10 mM aniline, did not significantly change over 24 hours): ~1 µM
CC(C)C[C@H](NC(=O)[C@H](CCCNC(=N)N)NC(=O)[C@@H](NC(=O)CCC(=O)N/N=C/c1ccc(Cl)cc1C(=O)O)[C@@H](C)O)C(=O)O [3-A144] | 9 ± 1.6 | 7.1 ± 0.9 | –
Ac-EAQTRL-OH [GKAP, Ac-EAQTRL-COOH, reference compound] | – | – | n (ITC stoichiometry) (SHANK1 PDZ [2]): 1.07 ± 0.01; ΔH (SHANK1 PDZ [2]): -7.07 ± 0.096 kcal/mol; ΔS (SHANK1 PDZ [2]): 9.7 J mol^−1 K^−1; ΔΔG (ΔGCompound-ΔGAc-TRL-OH) (SHANK1 PDZ [2]; [7]): -1.44 kcal/mol
CC(C)C[C@H](NC(=O)[C@H](CCCNC(=N)N)NC(=O)[C@@H](NC(=O)CCC(=O)N/N=C/c1cccc(OC(C(=O)O)c2ccccc2)c1)[C@@H](C)O)C(=O)O (stereo partly drawn) [3-A161] | – | 4.8 ± 0.4 | –
CC(C)C[C@H](NC(=O)[C@H](CCCNC(=N)N)NC(=O)[C@@H](NC(=O)CCCC(=O)N/N=C/c1cccc(OC(C(=O)O)c2ccccc2)c1)[C@@H](C)O)C(=O)O (stereo partly drawn) [4-A161] | – | 1.54 ± 0.05 | –
CC(C)C[C@H](NC(=O)[C@H](CCCNC(=N)N)NC(=O)[C@@H](NC(=O)CCC(=O)N/N=C/c1ccccc1C(=O)O)[C@@H](C)O)C(=O)O [3-A047] | 14 ± 1 | 8 ± 1 | –
CC(C)C[C@H](NC(=O)[C@H](CCCNC(=N)N)NC(=O)[C@@H](NC(=O)CCCC(=O)N/N=C/c1ccc(Cl)cc1C(=O)O)[C@@H](C)O)C(=O)O [4-A144] | 3.7 ± 0.4 | 3.1 ± 0.2 | –
CC(C)C[C@H](NC(=O)[C@H](CCCNC(=N)N)NC(=O)[C@@H](NC(=O)CCCC(=O)N/N=C/c1ccc(C(=O)O)cc1)[C@@H](C)O)C(=O)O [4-A048] | 7.5 ± 0.8 | 3.1 ± 0.2 | –
CC(C)C[C@H](NC(=O)[C@H](CCCNC(=N)N)NC(=O)[C@@H](NC(=O)CCCC(=O)NN=Cc1ccccc1)[C@@H](C)O)C(=O)O [4-A001] | – | 14.8 ± 0.8 | IC50 (SHANK1 PDZ [1]; [6]): 19 ± 3 µM
